Results taken from ChEMBL document CHEMBL4715697, “Synthesis and biological activity of benzamide DNA minor groove binders” (2016).

Experiments:
Format in all cases: functional
[1] = test system: MOLT-4; experiment: Growth inhibition of human MOLT-4 cells assessed as cell growth at 0.01 uM incubated for 48 hrs by sulforhodamine B assay relative to control; details: read-out: Activity
[2] = test system: EKVX; experiment: Growth inhibition of human EKVX cells assessed as cell growth at 0.01 uM incubated for 48 hrs by sulforhodamine B assay relative to control; details: read-out: Activity
[3] = test system: NCI-H460; experiment: Growth inhibition of human NCI-H460 cells assessed as cell growth at 0.01 uM incubated for 48 hrs by sulforhodamine B assay relative to control; details: read-out: Activity
[4] = test system: NCI-H522; experiment: Growth inhibition of human NCI-H522 cells assessed as cell growth at 0.01 uM incubated for 48 hrs by sulforhodamine B assay relative to control; details: read-out: Activity
[5] = test system: KM12; experiment: Growth inhibition of human KM12 cells assessed as cell growth at 0.01 uM incubated for 48 hrs by sulforhodamine B assay relative to control; details: read-out: Activity
[6] = test system: U-251; experiment: Growth inhibition of human U-251 cells assessed as cell growth at 0.01 uM incubated for 48 hrs by sulforhodamine B assay relative to control; details: read-out: Activity
[7] = test system: PC-3; experiment: Growth inhibition of human PC-3 cells assessed as cell growth at 0.01 uM incubated for 48 hrs by sulforhodamine B assay relative to control; details: read-out: Activity
[8] = test system: MDA-MB-231; experiment: Growth inhibition of human MDA-MB-231 cells assessed as cell growth at 0.01 uM incubated for 48 hrs by sulforhodamine B assay relative to control; details: read-out: Activity
[9] = test system: MDA-MB-468; experiment: Growth inhibition of human MDA-MB-468 cells assessed as cell growth at 0.01 uM incubated for 48 hrs by sulforhodamine B assay relative to control; details: read-out: Activity
[10] = test system: MOLT-4; experiment: Growth inhibition of human MOLT-4 cells assessed as cell growth at 0.1 uM incubated for 48 hrs by sulforhodamine B assay relative to control; details: read-out: Activity
[11] = test system: EKVX; experiment: Growth inhibition of human EKVX cells assessed as cell growth at 0.1 uM incubated for 48 hrs by sulforhodamine B assay relative to control; details: read-out: Activity
[12] = test system: NCI-H226; experiment: Growth inhibition of human NCI-H226 cells assessed as cell growth at 0.1 uM incubated for 48 hrs by sulforhodamine B assay relative to control; details: read-out: Activity
[13] = test system: HCT-116; experiment: Growth inhibition of human HCT-116 cells assessed as cell growth at 0.1 uM incubated for 48 hrs by sulforhodamine B assay relative to control; details: read-out: Activity
[14] = test system: SNB-75; experiment: Growth inhibition of human SNB-75 cells assessed as cell growth at 0.1 uM incubated for 48 hrs by sulforhodamine B assay relative to control; details: read-out: Activity
[15] = test system: OVCAR-5; experiment: Growth inhibition of human OVCAR-5 cells assessed as cell growth at 0.1 uM incubated for 48 hrs by sulforhodamine B assay relative to control; details: read-out: Activity
[16] = test system: RXF 393; experiment: Growth inhibition of human RXF 393 cells assessed as cell growth at 0.1 uM incubated for 48 hrs by sulforhodamine B assay relative to control; details: read-out: Activity
[17] = test system: TK-10; experiment: Growth inhibition of human TK-10 cells assessed as cell growth at 0.1 uM incubated for 48 hrs by sulforhodamine B assay relative to control; details: read-out: Activity
[18] = test system: Hs-578T; experiment: Growth inhibition of human Hs-578T cells assessed as cell growth at 0.1 uM incubated for 48 hrs by sulforhodamine B assay relative to control; details: read-out: Activity
[19] = test system: BT-549; experiment: Growth inhibition of human BT-549 cells assessed as cell growth at 0.1 uM incubated for 48 hrs by sulforhodamine B assay relative to control; details: read-out: Activity
[20] = test system: A549; experiment: Growth inhibition of human A549/ATCC cells assessed as cell growth at 1 uM incubated for 48 hrs by sulforhodamine B assay relative to control; details: read-out: Activity
[21] = test system: NCI-H23; experiment: Growth inhibition of human NCI-H23 cells assessed as cell growth at 1 uM incubated for 48 hrs by sulforhodamine B assay relative to control; details: read-out: Activity
[22] = test system: HCT-15; experiment: Growth inhibition of human HCT-15 cells assessed as cell growth at 1 uM incubated for 48 hrs by sulforhodamine B assay relative to control; details: read-out: Activity
[23] = test system: SW-620; experiment: Growth inhibition of human SW-620 cells assessed as cell growth at 1 uM incubated for 48 hrs by sulforhodamine B assay relative to control; details: read-out: Activity
[24] = test system: IGROV-1; experiment: Growth inhibition of human IGROV-1 cells assessed as cell growth at 1 uM incubated for 48 hrs by sulforhodamine B assay relative to control; details: read-out: Activity
[25] = test system: OVCAR-8; experiment: Growth inhibition of human OVCAR-8 cells assessed as cell growth at 1 uM incubated for 48 hrs by sulforhodamine B assay relative to control; details: read-out: Activity
[26] = test system: DU-145; experiment: Growth inhibition of human DU-145 cells assessed as cell growth at 1 uM incubated for 48 hrs by sulforhodamine B assay relative to control; details: read-out: Activity
[27] = test system: MDA-MB-468; experiment: Growth inhibition of human MDA-MB-468 cells assessed as cell growth at 1 uM incubated for 48 hrs by sulforhodamine B assay relative to control; details: read-out: Activity
[28] = test system: SR; experiment: Growth inhibition of human SR cells assessed as cell growth at 100 uM incubated for 48 hrs by sulforhodamine B assay relative to control; details: read-out: Activity
[29] = test system: U-251; experiment: Growth inhibition of human U-251 cells assessed as cell growth at 100 uM incubated for 48 hrs by sulforhodamine B assay relative to control; details: read-out: Activity
[30] = test system: 786-0; experiment: Growth inhibition of human 786-0 cells assessed as cell growth at 100 uM incubated for 48 hrs by sulforhodamine B assay relative to control; details: read-out: Activity
[31] = test system: MDA-MB-231; experiment: Growth inhibition of human MDA-MB-231 cells assessed as cell growth at 100 uM incubated for 48 hrs by sulforhodamine B assay relative to control; details: read-out: Activity
[32] = test system: HT-29; experiment: Growth inhibition of human HT-29 cells incubated for 48 hrs by sulforhodamine B assay
[33] = test system: SF-295; experiment: Growth inhibition of human SF-295 cells incubated for 48 hrs by sulforhodamine B assay
[34] = test system: LOX IMVI; experiment: Growth inhibition of human LOX IMVI cells incubated for 48 hrs by sulforhodamine B assay
[35] = test system: CAKI-1; experiment: Growth inhibition of human CAKI-1 cells incubated for 48 hrs by sulforhodamine B assay
[36] = test system: RXF 393; experiment: Growth inhibition of human RXF 393 cells incubated for 48 hrs by sulforhodamine B assay
[37] = read-out: LC50 (the source's name)
[38] = read-out: pLC50 (the source's name) (converted)

SMILES: CC(=O)Nc1cc(CCl)cc(NC(=O)c2ccc(C(=O)Nc3cccc(NC(=O)CCCN(C)C)c3)cc2)c1
- growth at 0.01 µM [1]: 102%
- growth at 0.01 µM [2]: 93%
- growth at 0.01 µM [3]: 105%
- growth at 0.01 µM [4]: 96%
- growth at 0.01 µM [5]: 105%
- growth at 0.01 µM [6]: 98%
- growth at 0.01 µM [7]: 104%
- growth at 0.01 µM [8]: 103%
- growth at 0.01 µM [9]: 90%
- growth at 0.1 µM [10]: 95%
- growth at 0.1 µM [11]: 87%
- growth at 0.1 µM [12]: 92%
- growth at 0.1 µM [13]: 107%
- growth at 0.1 µM [14]: 77%
- growth at 0.1 µM [15]: 88%
- growth at 0.1 µM [16]: 94%
- growth at 0.1 µM [17]: 106%
- growth at 0.1 µM [18]: 116%
- growth at 0.1 µM [19]: 103%
- growth at 1 µM [20]: 94%
- growth at 1 µM [21]: 93%
- growth at 1 µM [22]: 90%
- growth at 1 µM [23]: 107%
- growth at 1 µM [24]: 110%
- growth at 1 µM [25]: 101%
- growth at 1 µM [26]: 106%
- growth at 1 µM [27]: 86%
- growth at 100 µM [28]: 99%
- growth at 100 µM [29]: 95%
- growth at 100 µM [30]: 122%
- growth at 100 µM [31]: 74%
- GI50 ([32]; read-out: GI50): > 100 µM
- CC50 [32, 37]: > 100 µM
- TGI ([32]; read-out: TGI): > 100 µM
- GI50 ([32]; read-out: pGI50 (converted)): > 100 µM
- CC50 [32, 38]: > 100 µM
- TGI ([32]; read-out: pTGI): > 100 µM
- GI50 ([33]; read-out: GI50): 37.8 µM
- LC50 ([33]; read-out: LC50): > 100 µM
- TGI ([33]; read-out: TGI): > 100 µM
- GI50 ([33]; read-out: pGI50 (converted)): 38 µM
- LC50 ([33]; read-out: pLC50 (converted)): > 100 µM
- TGI ([33]; read-out: pTGI): > 100 µM
- GI50 ([34]; read-out: GI50): > 100 µM
- LC50 (concentration giving 50% cell kill) ([34]; read-out: LC50): > 100 µM
- TGI ([34]; read-out: TGI): > 100 µM
- GI50 ([34]; read-out: pGI50 (converted)): > 100 µM
- LC50 (concentration giving 50% cell kill) ([34]; read-out: pLC50 (converted)): > 100 µM
- TGI ([34]; read-out: pTGI): > 100 µM
- GI50 ([35]; read-out: GI50): > 100 µM
- CC50 [35, 37]: > 100 µM
- TGI ([35]; read-out: TGI): > 100 µM
- GI50 ([35]; read-out: pGI50 (converted)): > 100 µM
- CC50 [35, 38]: > 100 µM
- TGI ([35]; read-out: pTGI): > 100 µM
- GI50 ([36]; read-out: GI50): > 100 µM
- CC50 [36, 37]: > 100 µM
- TGI ([36]; read-out: TGI): > 100 µM
- GI50 ([36]; read-out: pGI50 (converted)): > 100 µM
- CC50 [36, 38]: > 100 µM
- TGI ([36]; read-out: pTGI): > 100 µM

SMILES: CC(=O)Nc1cc(CO[Si](C)(C)C(C)(C)C)cc(NC(=O)c2ccc(C(=O)Nc3cccc(NC(=O)CCCN(C)C)c3)cc2)c1
- growth at 0.01 µM [1]: 87%
- growth at 0.01 µM [2]: 101%
- growth at 0.01 µM [3]: 102%
- growth at 0.01 µM [4]: 89%
- growth at 0.01 µM [5]: 98%
- growth at 0.01 µM [6]: 101%
- growth at 0.01 µM [7]: 100%
- growth at 0.01 µM [8]: 102%
- growth at 0.01 µM [9]: 93%
- growth at 0.1 µM [10]: 91%
- growth at 0.1 µM [11]: 98%
- growth at 0.1 µM [12]: 93%
- growth at 0.1 µM [13]: 99%
- growth at 0.1 µM [14]: 83%
- growth at 0.1 µM [15]: 93%
- growth at 0.1 µM [16]: 102%
- growth at 0.1 µM [17]: 99%
- growth at 0.1 µM [18]: 121%
- growth at 0.1 µM [19]: 93%
- growth at 1 µM [20]: 100%
- growth at 1 µM [21]: 96%
- growth at 1 µM [22]: 87%
- growth at 1 µM [23]: 100%
- growth at 1 µM [24]: 81%
- growth at 1 µM [25]: 97%
- growth at 1 µM [26]: 88%
- growth at 1 µM [27]: 90%
- growth at 100 µM [28]: 116%
- growth at 100 µM [29]: 89%
- growth at 100 µM [30]: 88%
- growth at 100 µM [31]: 96%
- GI50 ([32]; read-out: GI50): > 75 µM
- CC50 [32, 37]: > 75 µM
- TGI ([32]; read-out: TGI): > 75 µM
- GI50 ([32]; read-out: pGI50 (converted)): > 75.9 µM
- CC50 [32, 38]: > 75.9 µM
- TGI ([32]; read-out: pTGI): > 75.9 µM
- GI50 ([33]; read-out: GI50): > 75 µM
- LC50 ([33]; read-out: LC50): > 75 µM
- TGI ([33]; read-out: TGI): > 75 µM
- GI50 ([33]; read-out: pGI50 (converted)): > 75.9 µM
- LC50 ([33]; read-out: pLC50 (converted)): > 75.9 µM
- TGI ([33]; read-out: pTGI): > 75.9 µM
- GI50 ([34]; read-out: GI50): > 75 µM
- LC50 (concentration giving 50% cell kill) ([34]; read-out: LC50): > 75 µM
- TGI ([34]; read-out: TGI): > 75 µM
- GI50 ([34]; read-out: pGI50 (converted)): > 75.9 µM
- LC50 (concentration giving 50% cell kill) ([34]; read-out: pLC50 (converted)): > 75.9 µM
- TGI ([34]; read-out: pTGI): > 75.9 µM
- GI50 ([35]; read-out: GI50): > 75 µM
- CC50 [35, 37]: > 75 µM
- TGI ([35]; read-out: TGI): > 75 µM
- GI50 ([35]; read-out: pGI50 (converted)): > 75.9 µM
- CC50 [35, 38]: > 75.9 µM
- TGI ([35]; read-out: pTGI): > 75.9 µM
- GI50 ([36]; read-out: GI50): > 75 µM
- CC50 [36, 37]: > 75 µM
- TGI ([36]; read-out: TGI): > 75 µM
- GI50 ([36]; read-out: pGI50 (converted)): > 75.9 µM
- CC50 [36, 38]: > 75.9 µM
- TGI ([36]; read-out: pTGI): > 75.9 µM
